Data from patent publication US10344025B2, “GLS1 inhibitors for treating disease” (Board of Regents, The University of Texas System, priority 2014, dated 2019).
pEC50, pIC50: −log10 of the molar value.

Key:
[1] = target: purified recombinant human GAC (GLS1) (Homo sapiens (Human), UniProt O94925); assay: GLS1 Enzymatic Activity Assay (dual-coupled enzymatic assay, resorufin/Amplex UltraRed readout); format: biochemical;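 also: glutamate from GAC coupled via glutamate oxidase and peroxidase to resorufin, read as fluorescence (ex 530, em 590 nm) kinetically or at 20 min, four-parameter logistic IC50 fit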
[2] = system: A549 cells; assay: Proliferation Assay (A549 viability, Cell Titer Fluor, 72 hours); format: cell-based; settings: Homo sapiens, A549, 72 h
Outline: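 Cell Titer Fluor fluorescence after 72 h compound treatment (0.5% DMSO, 37 °C, 5% CO2) of A549 cells plated 24 h earlier at 1000/well. Four-parameter logistic fitting gave IC50.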

Chain of purified recombinant human GAC (GLS1) (O94925 other isoform, or with tags, fused parts or gaps): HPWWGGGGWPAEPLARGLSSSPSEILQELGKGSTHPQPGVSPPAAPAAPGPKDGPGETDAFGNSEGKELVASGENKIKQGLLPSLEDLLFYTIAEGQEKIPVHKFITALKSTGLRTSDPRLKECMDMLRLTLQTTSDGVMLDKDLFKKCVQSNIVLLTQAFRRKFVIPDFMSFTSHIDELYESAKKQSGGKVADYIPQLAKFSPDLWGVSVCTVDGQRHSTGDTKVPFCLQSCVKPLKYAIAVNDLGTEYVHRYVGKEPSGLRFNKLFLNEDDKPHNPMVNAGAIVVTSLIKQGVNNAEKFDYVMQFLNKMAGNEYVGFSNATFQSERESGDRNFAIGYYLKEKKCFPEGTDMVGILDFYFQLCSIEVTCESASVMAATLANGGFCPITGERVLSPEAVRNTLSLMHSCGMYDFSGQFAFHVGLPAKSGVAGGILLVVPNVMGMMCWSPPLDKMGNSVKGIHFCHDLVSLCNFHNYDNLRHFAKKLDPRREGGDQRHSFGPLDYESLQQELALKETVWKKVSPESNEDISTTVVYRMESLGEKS

| pIC50 [1] | pEC50 [2] | SMILES |
| --- | --- | --- |
| > 7.00 | 6.30 to 7.00 | O=C(NCc1ccc(F)cc1)c1cn(CCC(F)Cn2cc(C(=O)NCc3cc(C(F)(F)F)ccn3)nn2)nn1 (stereo not shown) [Example 459, 1-[2-fluoro-4-(4-{[(4-fluorophenyl)methyl]carbamoyl}-1H-1,2,3-triazol-1-yl)butyl]-N-{[4-(trifluoromethyl)pyridin-2-yl]methyl}-1H-1,2,3-triazole-4-carboxamide] |
| 6.30 to 7.00 | 6.30 to 7.00 | O=C(NCc1ccccc1)c1cn(CCC(F)Cn2cc(C(=O)NCc3cc(C(F)(F)F)ccn3)nn2)nn1 (stereo not shown) [Example 460, 1-{4-[4-(benzylcarbamoyl)-1H-1,2,3-triazol-1-yl]-2-fluorobutyl}-N-{[4-(trifluoromethyl)pyridin-2-yl]methyl}-1H-1,2,3-triazole-4-carboxamide] |
| 6.30 to 7.00 | 5.30 to 6.30 | O=C(NCc1cccc(OC(F)(F)F)c1)c1cn(CCC(F)Cn2cc(C(=O)N[C@@H](CO)c3ccccc3)nn2)nn1 (stereo partly drawn) [Example 461, 1-{2-fluoro-4-[4-({[3-(trifluoromethoxy)phenyl]methyl}carbamoyl)-1H-1,2,3-triazol-1-yl]butyl}-N-[(1R)-2-hydroxy-1-phenylethyl]-1H-1,2,3-triazole-4-carboxamide] |
| > 7.00 | 6.30 to 7.00 | O=C(NCc1cccc(OC(F)(F)F)c1)c1cn(CCC(F)Cn2cc(C(=O)N[C@H](CO)c3ccccc3)nn2)nn1 (stereo partly drawn) [Example 462, 1-{2-fluoro-4-[4-({[3-(trifluoromethoxy)phenyl]methyl}carbamoyl)-1H-1,2,3-triazol-1-yl]butyl}-N-[(1S)-2-hydroxy-1-phenylethyl]-1H-1,2,3-triazole-4-carboxamide] |
| > 7.00 | > 7.00 | O=C(NCc1cccc(OC(F)(F)F)c1)c1cn(CC(F)CCc2nnc(C(=O)NCc3cc(C(F)(F)F)ccn3)s2)nn1 (stereo not shown) [Example 463, 5-{3-fluoro-4-[4-({[3-(trifluoromethoxy)phenyl]methyl}carbamoyl)-1H-1,2,3-triazol-1-yl]butyl}-N-{[4-(trifluoromethyl)pyridin-2-yl]methyl}-1,3,4-thiadiazole-2-carboxamide] |
| > 7.00 | > 7.00 | O=C(NCc1cccc(OC(F)(F)F)c1)c1cn(CC(F)CCc2nnc(C(=O)NCc3ccc(C(F)(F)F)cn3)s2)nn1 (stereo not shown) [Example 464, 5-{3-fluoro-4-[4-({[3-(trifluoromethoxy)phenyl]methyl}carbamoyl)-1H-1,2,3-triazol-1-yl]butyl}-N-{[5-(trifluoromethyl)pyridin-2-yl]methyl}-1,3,4-thiadiazole-2-carboxamide] |
| > 7.00 | > 7.00 | O=C(NCc1cc(OC(F)(F)F)ccc1F)c1cn(CC(F)CCc2nnc(C(=O)NCc3ccc(C(F)(F)F)cn3)s2)nn1 (stereo not shown) [Example 465, 5-{3-fluoro-4-[4-({[2-fluoro-5-(trifluoromethoxy)phenyl]methyl}carbamoyl)-1H-1,2,3-triazol-1-yl]butyl}-N-{[5-(trifluoromethyl)pyridin-2-yl]methyl}-1,3,4-thiadiazole-2-carboxamide] |
| > 7.00 | > 7.00 | O=C(NCc1cccc(F)c1)c1cn(CCC(F)Cn2cc(C(=O)NCc3cc(C(F)(F)F)ccn3)nn2)nn1 (stereo not shown) [Example 466, 1-[2-fluoro-4-(4-{[(3-fluorophenyl)methyl]carbamoyl}-1H-1,2,3-triazol-1-yl)butyl]-N-{[4-(trifluoromethyl)pyridin-2-yl]methyl}-1H-1,2,3-triazole-4-carboxamide] |
| 6.30 to 7.00 | 6.30 to 7.00 | O=C(NCc1cc(C(F)(F)F)ccn1)c1cn(CC(F)CCn2cc(C(=O)N[C@@H](CO)c3ccccc3)nn2)nn1 (stereo partly drawn) [Example 467, 1-[2-fluoro-4-(4-{[(1R)-2-hydroxy-1-phenylethyl]carbamoyl}-1H-1,2,3-triazol-1-yl)butyl]-N-{[4-(trifluoromethyl)pyridin-2-yl]methyl}-1H-1,2,3-triazole-4-carboxamide] |
| > 7.00 | > 7.00 | COc1cccc(CNC(=O)c2cn(CCC(F)Cn3cc(C(=O)NCc4cc(C(F)(F)F)ccn4)nn3)nn2)c1 (stereo not shown) [Example 468, 1-[2-fluoro-4-(4-{[(3-methoxyphenyl)methyl]carbamoyl}-1H-1,2,3-triazol-1-yl)butyl]-N-{[4-(trifluoromethyl)pyridin-2-yl]methyl}-1H-1,2,3-triazole-4-carboxamide] |
| > 7.00 | > 7.00 | O=C(NCc1ccc(OC(F)(F)F)cc1)c1cn(CCC(F)Cn2cc(C(=O)NCc3cc(C(F)(F)F)ccn3)nn2)nn1 (stereo not shown) [Example 469, 1-{2-fluoro-4-[4-({[4-(trifluoromethoxy)phenyl]methyl}carbamoyl)-1H-1,2,3-triazol-1-yl]butyl}-N-{[4-(trifluoromethyl)pyridin-2-yl]methyl}-1H-1,2,3-triazole-4-carboxamide] |
| > 7.00 | > 7.00 | O=C(NCc1cc(C(F)(F)F)ccn1)c1cn(CCC(F)Cn2cc(C(=O)NCc3cc(C(F)(F)F)ccn3)nn2)nn1 (stereo not shown) [Example 470, 1-{2-fluoro-4-[4-({[4-(trifluoromethyl)pyridin-2-yl]methyl}carbamoyl)-1H-1,2,3-triazol-1-yl]butyl}-N-{[4-(trifluoromethyl)pyridin-2-yl]methyl}-1H-1,2,3-triazole-4-carboxamide] |
| > 7.00 | 6.30 to 7.00 | O=C(NCC1CCCC1)c1cn(CCC(F)Cn2cc(C(=O)NCc3cc(C(F)(F)F)ccn3)nn2)nn1 (stereo not shown) [Example 471, 1-(4-{4-[(cyclopentylmethyl)carbamoyl]-1H-1,2,3-triazol-1-yl}-2-fluorobutyl)-N-{[4-(trifluoromethyl)pyridin-2-yl]methyl}-1H-1,2,3-triazole-4-carboxamide] |
| 6.30 to 7.00 | 6.30 to 7.00 | O=C(NCC1CCCCO1)c1cn(CCC(F)Cn2cc(C(=O)NCc3cc(C(F)(F)F)ccn3)nn2)nn1 (stereo not shown) [Example 472, 1-(2-fluoro-4-{4-[(oxan-2-ylmethyl)carbamoyl]-1H-1,2,3-triazol-1-yl}butyl)-N-{[4-(trifluoromethyl)pyridin-2-yl]methyl}-1H-1,2,3-triazole-4-carboxamide] |
| 6.30 to 7.00 | 6.30 to 7.00 | O=C(NCC1CCCOC1)c1cn(CCC(F)Cn2cc(C(=O)NCc3cc(C(F)(F)F)ccn3)nn2)nn1 (stereo not shown) [Example 473, 1-(2-fluoro-4-{4-[(oxan-3-ylmethyl)carbamoyl]-1H-1,2,3-triazol-1-yl}butyl)-N-{[4-(trifluoromethyl)pyridin-2-yl]methyl}-1H-1,2,3-triazole-4-carboxamide] |
| > 7.00 | > 7.00 | O=C(NCc1cccc(C(F)(F)F)n1)c1cn(CCC(F)Cn2cc(C(=O)NCc3cc(C(F)(F)F)ccn3)nn2)nn1 (stereo not shown) [Example 474, 1-{2-fluoro-4-[4-({[6-(trifluoromethyl)pyridin-2-yl]methyl}carbamoyl)-1H-1,2,3-triazol-1-yl]butyl}-N-{[4-(trifluoromethyl)pyridin-2-yl]methyl}-1H-1,2,3-triazole-4-carboxamide] |
| 6.30 to 7.00 | 6.30 to 7.00 | CNC(=O)c1cn(CCC(F)Cn2cc(C(=O)NCc3cc(C(F)(F)F)ccn3)nn2)nn1 (stereo not shown) [Example 475, 1-(3-fluoro-4-(4-((4-(trifluoromethyl)pyridin-2-yl)methylcarbamoyl)-1H-1,2,3-triazol-1-yl)butyl)-N-methyl-1H-1,2,3-triazole-4-carboxamide] |
| > 7.00 | > 7.00 | O=C(NCc1cncc(C(F)(F)F)c1)c1cn(CCC(F)Cn2cc(C(=O)NCc3cc(C(F)(F)F)ccn3)nn2)nn1 (stereo not shown) [Example 476, 1-{2-fluoro-4-[4-({[5-(trifluoromethyl)pyridin-3-yl]methyl}carbamoyl)-1H-1,2,3-triazol-1-yl]butyl}-N-{[4-(trifluoromethyl)pyridin-2-yl]methyl}-1H-1,2,3-triazole-4-carboxamide] |
| > 7.00 | > 7.00 | O=C(NCc1cccc(OC(F)(F)F)c1)c1cn(CCC(F)Cn2cc(C(=O)NCc3cncc(C(F)(F)F)c3)nn2)nn1 (stereo not shown) [Example 477, 1-{2-fluoro-4-[4-({[3-(trifluoromethoxy)phenyl]methyl}carbamoyl)-1H-1,2,3-triazol-1-yl]butyl}-N-{[5-(trifluoromethyl)pyridin-3-yl]methyl}-1H-1,2,3-triazole-4-carboxamide] |
| > 7.00 | > 7.00 | O=C(NCc1cncc(C(F)(F)F)c1)c1cn(CCC(F)Cn2cc(C(=O)NCc3cccc(OC(F)(F)F)c3)nn2)nn1 (stereo not shown) [Example 478, 1-{3-fluoro-4-[4-({[3-(trifluoromethoxy)phenyl]methyl}carbamoyl)-1H-1,2,3-triazol-1-yl]butyl}-N-{[5-(trifluoromethyl)pyridin-3-yl]methyl}-1H-1,2,3-triazole-4-carboxamide] |
| > 7.00 | > 7.00 | O=C(NCc1cc(OC(F)(F)F)ccc1F)c1cn(CCC(F)Cn2cc(C(=O)NCc3cncc(C(F)(F)F)c3)nn2)nn1 (stereo not shown) [Example 479, 1-{2-fluoro-4-[4-({[2-fluoro-5-(trifluoromethoxy)phenyl]methyl}carbamoyl)-1H-1,2,3-triazol-1-yl]butyl}-N-{[5-(trifluoromethyl)pyridin-3-yl]methyl}-1H-1,2,3-triazole-4-carboxamide] |
| > 7.00 | > 7.00 | O=C(NCc1cncc(C(F)(F)F)c1)c1cn(CC(F)CCc2nnc(C(=O)NCc3cccc(C(F)(F)F)c3)s2)nn1 (stereo not shown) [Example 480, 5-{3-fluoro-4-[4-({[5-(trifluoromethyl)pyridin-3-yl]methyl}carbamoyl)-1H-1,2,3-triazol-1-yl]butyl}-N-{[3-(trifluoromethyl)phenyl]methyl}-1,3,4-thiadiazole-2-carboxamide] |
| > 7.00 | > 7.00 | O=C(NCc1ccc(C2CC2)nc1)c1cn(CC(F)CCc2nnc(C(=O)NCc3cccc(C(F)(F)F)c3)s2)nn1 (stereo not shown) [Example 481, 5-[4-(4-{[(6-cyclopropylpyridin-3-yl)methyl]carbamoyl}-1H-1,2,3-triazol-1-yl)-3-fluorobutyl]-N-{[3-(trifluoromethyl)phenyl]methyl}-1,3,4-thiadiazole-2-carboxamide] |
